The values below come from US20230174523A1, “BENZENESULFONAMIDE DERIVATIVES AS TRAP1 MODULATORS AND USES THEREOF” (Amathus Therapeutics, Inc., priority 2020, published 2023).

One test deals with T1, TRAP1 enzyme (Homo sapiens, UniProt Q12931).
T1 sequence (Q12931 60-704): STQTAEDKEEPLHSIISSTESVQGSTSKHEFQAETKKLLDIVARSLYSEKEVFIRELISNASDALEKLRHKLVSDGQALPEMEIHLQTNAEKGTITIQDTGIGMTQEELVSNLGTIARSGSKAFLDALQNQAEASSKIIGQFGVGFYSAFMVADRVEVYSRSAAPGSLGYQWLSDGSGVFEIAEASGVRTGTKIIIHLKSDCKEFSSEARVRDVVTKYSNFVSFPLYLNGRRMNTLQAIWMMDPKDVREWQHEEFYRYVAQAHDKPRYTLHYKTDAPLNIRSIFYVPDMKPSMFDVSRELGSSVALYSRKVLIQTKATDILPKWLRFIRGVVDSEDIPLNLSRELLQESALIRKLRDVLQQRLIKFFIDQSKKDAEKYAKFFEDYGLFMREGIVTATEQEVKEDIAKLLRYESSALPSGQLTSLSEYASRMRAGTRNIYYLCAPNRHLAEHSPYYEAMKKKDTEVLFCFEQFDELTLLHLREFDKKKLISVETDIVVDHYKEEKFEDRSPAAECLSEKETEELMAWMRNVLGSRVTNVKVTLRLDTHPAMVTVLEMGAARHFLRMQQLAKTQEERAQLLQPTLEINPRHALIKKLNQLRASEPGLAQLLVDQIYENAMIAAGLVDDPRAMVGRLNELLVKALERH
Put plainly: ADP Glo assay of TRAP1 ATPase activity. Type of test: biochemical. Summed up:
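150 nM TRAP1 preincubated with compound (0.79–100 μM) 30 min at 37° C in Pipes pH 7.5 buffer (0.05 mM MgCl2, 40 mM KCl), then 20 μM ATP added for 60 min at 37° C. ADP quantified by ADP-Glo luminescence against ATP/ADP standard curve. Emax and EC50 from sigmoidal fit.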
Background: ADP-Glo first removes unused ATP, then detects ADP through luciferase.

Test [1] concerns primary rat dopaminergic neurons. Put plainly: ROS production in primary dopaminergic TH-positive neurons injured with 6-OHDA. The format is cell-based. The conditions noted are these: injury with 6-OHDA (20 μM, 4 h); FIG. 5. Here is the method: Rat dopaminergic neurons were cultured as described by Visanji et al., 2008. Briefly, pregnant female rat of 15 days of gestation are sacrificed using a deep anesthesia with CO2 chamber and a cervical dislocation. The midbrains obtained from 15-day-old rat embryos are dissected under a microscope. The embryonic midbrains are removed and placed in ice-cold medium of Leibovitz (L15) containing 2% of Penicillin-Streptomycin (PS) and 1% of bovine serum albumin (BSA). The ventral portion of the mesencephalic flexure, a region of the developing brain rich in dopaminergic neurons, is used for the cell preparations.
The midbrains are dissociated by trypsinisation for 20 min at 37° C. (solution at a final concentration of 0.05% trypsin and 0.02% EDTA). The reaction is stopped by the addition of Dulbecco's modified Eagle's medium (DMEM) containing DNAase I grade II (0.5 mg/mL) and 10% of foetal calf serum (FCS). Cells are then mechanically dissociated by 3 passages through a 10 mL pipette. Cells are then centrifuged at 180×g for 10 min at +4° C. on a layer of BSA (3.5%) in L15 medium. […] Viable cells are counted in a Neubauer cytometer using the trypan blue exclusion test. […] Six wells per condition are assessed. […]

In general, EC50 refers to the concentration at which the effect is half-maximal. In general, Emax refers to the size of the effect at its maximum, as opposed to the concentration needed. With `Cc1nn(C)c2sc(C(=O)Nc3ccc(F)c(S(=O)(=O)Nc4ccc(Cl)cc4)c3)cc12` [Compound 705], the EC50 on TRAP1 enzyme (TRAP1 ATPase activation, 150 nM Trap1, 20 μM ATP, geometric mean, read-out: ADP GLO DRC: GeoMean EC50) lay in the range of 10 to 20 µM. The Emax at TRAP1 enzyme (read-out: ADP GLO DRC: Mean Emax) was in the range of 160 to 199%. Besides, in test [1], the “reactive oxygen species (ROS) production” value is reported as “reduction in ROS”.
